ChEMBL document CHEMBL4184210, “Optimization of novel monobactams with activity against carbapenem-resistant Enterobacteriaceae - Identification of LYS228” (Bioorg Med Chem Lett, 2018)
Converted amounts (≈) assume the structure as drawn.

Tests used:
Escherichia coli [1] = experiment: microbe, parasite or virus in culture
Description: Antimicrobial activity against Escherichia coli expressing beta-lactamase CTXM-15 by CLSI broth microdilution method

Escherichia coli [2] = experiment: microbe, parasite or virus in culture; remark: listed apart in the source
Description: Antimicrobial activity against Escherichia coli expressing beta-lactamase AmpC by CLSI broth microdilution method

Escherichia coli [3] = experiment: microbe, parasite or virus in culture; remark: listed apart in the source
Description: Antimicrobial activity against Escherichia coli expressing beta-lactamase SHV-12 by CLSI broth microdilution method

[4] = Chemical stability in pH 7.4 potassium phosphate buffer assessed as half life for compound hydrolysis at 37 degC by UPLC and mass spectrometry; type: physicochemical
Escherichia coli [5] = experiment: microbe, parasite or virus in culture; remark: listed apart in the source
Description: Antimicrobial activity against Escherichia coli expressing beta-lactamase TEM-10 by CLSI broth microdilution method

Escherichia coli [6] = experiment: Antimicrobial activity against Escherichia coli expressing beta-lactamase NDM-1 by CLSI broth microdilution method; type: functional
Escherichia coli [7] = experiment: microbe, parasite or virus in culture; remark: listed apart in the source
Description: Antimicrobial activity against wild type Escherichia coli by CLSI broth microdilution method

Escherichia coli [8] = experiment: Antimicrobial activity against Escherichia coli expressing beta-lactamase KPC-2 by CLSI broth microdilution method; type: functional
Escherichia coli [9] = experiment: microbe, parasite or virus in culture; remark: listed apart in the source
Description: Antimicrobial activity against Escherichia coli expressing beta-lactamase CMY-2 by CLSI broth microdilution method

Escherichia coli [10] = experiment: microbe, parasite or virus in culture; remark: listed apart in the source
Description: Antimicrobial activity against Escherichia coli expressing beta-lactamase Oxa-48 by CLSI broth microdilution method

Escherichia coli [11] = experiment: microbe, parasite or virus in culture; remark: listed apart in the source
Description: Antimicrobial activity against Escherichia coli expressing beta-lactamase PER-4 by CLSI broth microdilution method

Escherichia coli [12] = experiment: microbe, parasite or virus in culture; remark: listed apart in the source
Description: Antimicrobial activity against Escherichia coli expressing beta-lactamase PER-1 by CLSI broth microdilution method

Escherichia coli [13] = experiment: microbe, parasite or virus in culture; remark: listed apart in the source
Description: Antimicrobial activity against Escherichia coli expressing beta-lactamase TEM-24 by CLSI broth microdilution method

Escherichia coli [14] = experiment: Antimicrobial activity against Escherichia coli expressing beta-lactamase VEB-1 by CLSI broth microdilution method; type: functional
Escherichia coli [15] = experiment: microbe, parasite or virus in culture; remark: listed apart in the source
Description: Antimicrobial activity against Escherichia coli expressing beta-lactamase Oxa-18 by CLSI broth microdilution method

Escherichia coli [16] = experiment: Antimicrobial activity against Escherichia coli expressing beta-lactamase TEM-1 by CLSI broth microdilution method; type: functional
Escherichia coli [17] = experiment: microbe, parasite or virus in culture; remark: listed apart in the source
Description: Antimicrobial activity against Escherichia coli expressing beta-lactamase IMP-1 by CLSI broth microdilution method

Escherichia coli [18] = experiment: microbe, parasite or virus in culture; remark: listed apart in the source
Description: Antimicrobial activity against Escherichia coli expressing beta-lactamase Oxa-40 by CLSI broth microdilution method

Escherichia coli [19] = experiment: microbe, parasite or virus in culture; remark: listed apart in the source
Description: Antimicrobial activity against Escherichia coli expressing beta-lactamase NMC-A by CLSI broth microdilution method

Escherichia coli [20] = experiment: microbe, parasite or virus in culture; remark: listed apart in the source
Description: Antimicrobial activity against Escherichia coli expressing beta-lactamase TEM-121 by CLSI broth microdilution method

Escherichia coli [21] = experiment: microbe, parasite or virus in culture; remark: listed apart in the source
Description: Antimicrobial activity against Escherichia coli expressing beta-lactamase SPM-1 by CLSI broth microdilution method

Escherichia coli [22] = experiment: microbe, parasite or virus in culture; remark: listed apart in the source
Description: Antimicrobial activity against Escherichia coli expressing beta-lactamase VIM-1 by CLSI broth microdilution method

Escherichia coli [23] = experiment: microbe, parasite or virus in culture; remark: listed apart in the source
Description: Antimicrobial activity against Escherichia coli expressing beta-lactamase KPC-8 by CLSI broth microdilution method

Escherichia coli [24] = experiment: microbe, parasite or virus in culture; remark: listed apart in the source
Description: Antimicrobial activity against Escherichia coli expressing beta-lactamase Oxa-160 by CLSI broth microdilution method

Escherichia coli [25] = experiment: microbe, parasite or virus in culture; remark: listed apart in the source
Description: Antimicrobial activity against Escherichia coli expressing beta-lactamase P99 by CLSI broth microdilution method

Escherichia coli [26] = experiment: microbe, parasite or virus in culture; remark: listed apart in the source
Description: Antimicrobial activity against Escherichia coli expressing beta-lactamase Oxa-225 by CLSI broth microdilution method

Escherichia coli [27] = experiment: microbe, parasite or virus in culture; remark: listed apart in the source
Description: Antimicrobial activity against Escherichia coli expressing beta-lactamase CTXM-3 by CLSI broth microdilution method

Escherichia coli [28] = experiment: microbe, parasite or virus in culture; remark: listed apart in the source
Description: Antimicrobial activity against Escherichia coli expressing beta-lactamase SME-1 by CLSI broth microdilution method

Escherichia coli [29] = experiment: microbe, parasite or virus in culture; remark: listed apart in the source
Description: Antimicrobial activity against Escherichia coli expressing beta-lactamase Oxa-10 by CLSI broth microdilution method

Escherichia coli [30] = experiment: microbe, parasite or virus in culture; remark: listed apart in the source
Description: Antimicrobial activity against Escherichia coli expressing beta-lactamase TEM-16 by CLSI broth microdilution method

Escherichia coli [31] = experiment: microbe, parasite or virus in culture; remark: listed apart in the source
Description: Antimicrobial activity against Escherichia coli expressing beta-lactamase KPC-3 by CLSI broth microdilution method

Escherichia coli [32] = experiment: microbe, parasite or virus in culture; remark: listed apart in the source
Description: Antimicrobial activity against Escherichia coli expressing beta-lactamase VEB-7 by CLSI broth microdilution method

Escherichia coli [33] = experiment: microbe, parasite or virus in culture; remark: listed apart in the source
Description: Antimicrobial activity against Escherichia coli expressing beta-lactamase Oxa-146 by CLSI broth microdilution method

Escherichia coli [34] = experiment: microbe, parasite or virus in culture; remark: listed apart in the source
Description: Antimicrobial activity against Escherichia coli expressing beta-lactamase GIM-1 by CLSI broth microdilution method

Escherichia coli [35] = experiment: Antimicrobial activity against Escherichia coli expressing beta-lactamase NDM-5 by CLSI broth microdilution method; type: functional
Escherichia coli [36] = experiment: microbe, parasite or virus in culture; remark: listed apart in the source
Description: Antimicrobial activity against Escherichia coli expressing beta-lactamase Oxa-181 by CLSI broth microdilution method

Escherichia coli [37] = experiment: microbe, parasite or virus in culture; remark: listed apart in the source
Description: Antimicrobial activity against Escherichia coli expressing beta-lactamase TEM-47 by CLSI broth microdilution method

Escherichia coli [38] = experiment: microbe, parasite or virus in culture; remark: listed apart in the source
Description: Antimicrobial activity against Escherichia coli expressing beta-lactamase PER-2 by CLSI broth microdilution method

Escherichia coli [39] = experiment: microbe, parasite or virus in culture; remark: listed apart in the source
Description: Antimicrobial activity against Escherichia coli expressing beta-lactamase Oxa-51 by CLSI broth microdilution method

Escherichia coli [40] = experiment: microbe, parasite or virus in culture; remark: listed apart in the source
Description: Antimicrobial activity against Escherichia coli expressing beta-lactamase DHA by CLSI broth microdilution method

Escherichia coli [41] = experiment: microbe, parasite or virus in culture; remark: listed apart in the source
Description: Antimicrobial activity against Escherichia coli expressing beta-lactamase MIR-1 by CLSI broth microdilution method

Escherichia coli [42] = experiment: microbe, parasite or virus in culture; remark: listed apart in the source
Description: Antimicrobial activity against Escherichia coli expressing beta-lactamase GES-1 by CLSI broth microdilution method

Escherichia coli [43] = experiment: microbe, parasite or virus in culture; remark: listed apart in the source
Description: Antimicrobial activity against Escherichia coli expressing beta-lactamase VEB-4 by CLSI broth microdilution method

Escherichia coli [44] = experiment: microbe, parasite or virus in culture; remark: listed apart in the source
Description: Antimicrobial activity against Escherichia coli expressing beta-lactamase Oxa-23 by CLSI broth microdilution method

Escherichia coli [45] = experiment: microbe, parasite or virus in culture; remark: listed apart in the source
Description: Antimicrobial activity against Escherichia coli expressing beta-lactamase IMI-1 by CLSI broth microdilution method

Escherichia coli [46] = experiment: microbe, parasite or virus in culture; remark: listed apart in the source
Description: Antimicrobial activity against Escherichia coli expressing beta-lactamase KPC-4 by CLSI broth microdilution method

## CC(C)(O/N=C(\C(=O)N[C@@H]1C(=O)N(S(=O)(=O)O)[C@@H]1CN1CCC1=O)c1csc(N)n1)C(=O)O (stereo in doubt)
Escherichia coli [1]
  MIC: 4 µg/mL (≈ 7.93 µM)
Escherichia coli [2]
  MIC: 64 µg/mL (≈ 127 µM)
Escherichia coli [3]
  MIC: 8 µg/mL (≈ 15.9 µM)
[4]
  half-life: > 41.7 days
Escherichia coli [5]
  MIC: 16 µg/mL (≈ 31.7 µM)
Escherichia coli [6]
  MIC: 2 µg/mL (≈ 3.96 µM)
Escherichia coli [7]
  MIC: 2 µg/mL (≈ 3.96 µM)
Escherichia coli [8]
  MIC: 4 µg/mL (≈ 7.93 µM)

## CC(C)(O/N=C(\C(=O)N[C@@H]1C(=O)N(S(=O)(=O)O)[C@@H]1CN1CCOC1=O)c1csc(N)n1)C(=O)O (stereo in doubt)
Escherichia coli [1]
  MIC: 0.5 to 1 µg/mL (≈ 0.961 to 1.92 µM)
Escherichia coli [2]
  MIC: 2 µg/mL (≈ 3.84 µM)
Escherichia coli [3]
  MIC: 1 µg/mL (≈ 1.92 µM)
[4]
  half-life: 20.1 days
Escherichia coli [5]
  MIC: 2 µg/mL (≈ 3.84 µM)
Escherichia coli [6]
  MIC: 0.5 µg/mL (≈ 0.961 µM)
Escherichia coli [7]
  MIC: 0.5 µg/mL (≈ 0.961 µM)
Escherichia coli [9]
  MIC: 4 µg/mL (≈ 7.68 µM)
Escherichia coli [8]
  MIC: 0.5 µg/mL (≈ 0.961 µM)

## CC(C)(O/N=C(\C(=O)N[C@@H]1C(=O)N(S(=O)(=O)O)[C@@H]1CN1CCCCC1=O)c1csc(N)n1)C(=O)O (stereo in doubt)
Escherichia coli [1]
  MIC: 8 µg/mL (≈ 15 µM)
Escherichia coli [2]
  MIC: 16 µg/mL (≈ 30 µM)
Escherichia coli [3]
  MIC: 4 µg/mL (≈ 7.51 µM)
[4]
  half-life: 8.92 days
Escherichia coli [5]
  MIC: 4 µg/mL (≈ 7.51 µM)
Escherichia coli [6]
  MIC: 8 µg/mL (≈ 15 µM)
Escherichia coli [7]
  MIC: 4 µg/mL (≈ 7.51 µM)
Escherichia coli [8]
  MIC: 8 µg/mL (≈ 15 µM)

## CC(C)(O/N=C(\C(=O)N[C@@H]1C(=O)N(S(=O)(=O)O)[C@@H]1CN1CCCC1=O)c1csc(N)n1)C(=O)O (stereo in doubt)
Escherichia coli [1]
  MIC: 2 µg/mL (≈ 3.86 µM)
Escherichia coli [2]
  MIC: 16 µg/mL (≈ 30.9 µM)
Escherichia coli [3]
  MIC: 2 µg/mL (≈ 3.86 µM)
[4]
  half-life: > 41.7 days
Escherichia coli [5]
  MIC: 4 µg/mL (≈ 7.71 µM)
Escherichia coli [6]
  MIC: 1 µg/mL (≈ 1.93 µM)
Escherichia coli [7]
  MIC: 1 µg/mL (≈ 1.93 µM)
Escherichia coli [8]
  MIC: 2 µg/mL (≈ 3.86 µM)

## CC1(C)[C@H](NC(=O)/C(=N\OCc2cc(=O)c(O)cn2O)c2csc(N)n2)C(=O)N1OS(=O)(=O)O (stereo in doubt)
Escherichia coli [10]
  MIC: 0.125 µg/mL (≈ 0.241 µM)
Escherichia coli [11]
  MIC: 0.5 µg/mL (≈ 0.964 µM)
Escherichia coli [1]
  MIC: 1 µg/mL (≈ 1.93 µM)
Escherichia coli [12]
  MIC: 16 µg/mL (≈ 30.9 µM)
Escherichia coli [13]
  MIC: 16 µg/mL (≈ 30.9 µM)
Escherichia coli [14]
  MIC: 16 µg/mL (≈ 30.9 µM)
Escherichia coli [2]
  MIC: 0.5 µg/mL (≈ 0.964 µM)
Escherichia coli [15]
  MIC: 16 µg/mL (≈ 30.9 µM)
Escherichia coli [16]
  MIC: 0.5 µg/mL (≈ 0.964 µM)
Escherichia coli [17]
  MIC: 0.25 µg/mL (≈ 0.482 µM)
Escherichia coli [18]
  MIC: ≤ 0.03 µg/mL
Escherichia coli [3]
  MIC: > 32 µg/mL
Escherichia coli [19]
  MIC: 0.25 µg/mL (≈ 0.482 µM)
Escherichia coli [20]
  MIC: 8 µg/mL (≈ 15.4 µM)
Escherichia coli [21]
  MIC: ≤ 0.06 µg/mL
Escherichia coli [22]
  MIC: ≤ 0.06 µg/mL
Escherichia coli [5]
  MIC: > 64 µg/mL
Escherichia coli [6]
  MIC: 0.25 µg/mL (≈ 0.482 µM)
Escherichia coli [23]
  MIC: 8 µg/mL (≈ 15.4 µM)
Escherichia coli [24]
  MIC: 8 µg/mL (≈ 15.4 µM)
Escherichia coli [25]
  MIC: 0.5 µg/mL (≈ 0.964 µM)
Escherichia coli [26]
  MIC: 2 µg/mL (≈ 3.86 µM)
Escherichia coli [27]
  MIC: 0.25 µg/mL (≈ 0.482 µM)
Escherichia coli [7]
  MIC: 0.25 µg/mL (≈ 0.482 µM)
Escherichia coli [28]
  MIC: 0.5 µg/mL (≈ 0.964 µM)
Escherichia coli [29]
  MIC: 0.125 µg/mL (≈ 0.241 µM)
Escherichia coli [30]
  MIC: 16 µg/mL (≈ 30.9 µM)
Escherichia coli [31]
  MIC: 0.5 µg/mL (≈ 0.964 µM)
Escherichia coli [32]
  MIC: 2 µg/mL (≈ 3.86 µM)
Escherichia coli [33]
  MIC: 2 µg/mL (≈ 3.86 µM)
Escherichia coli [34]
  MIC: ≤ 0.06 µg/mL
Escherichia coli [35]
  MIC: 0.125 µg/mL (≈ 0.241 µM)
Escherichia coli [36]
  MIC: 0.125 µg/mL (≈ 0.241 µM)
Escherichia coli [37]
  MIC: 2 µg/mL (≈ 3.86 µM)
Escherichia coli [9]
  MIC: 0.25 µg/mL (≈ 0.482 µM)
Escherichia coli [38]
  MIC: > 64 µg/mL
Escherichia coli [39]
  MIC: 0.06 µg/mL (≈ 0.116 µM)
Escherichia coli [40]
  MIC: 0.25 µg/mL (≈ 0.482 µM)
Escherichia coli [41]
  MIC: 2 µg/mL (≈ 3.86 µM)
Escherichia coli [42]
  MIC: 0.25 µg/mL (≈ 0.482 µM)
Escherichia coli [43]
  MIC: 8 µg/mL (≈ 15.4 µM)
Escherichia coli [8]
  MIC: 0.5 µg/mL (≈ 0.964 µM)
Escherichia coli [44]
  MIC: 0.06 µg/mL (≈ 0.116 µM)
Escherichia coli [45]
  MIC: 0.25 µg/mL (≈ 0.482 µM)
Escherichia coli [46]
  MIC: 32 µg/mL (≈ 61.7 µM)

## CC(C)(O/N=C(\C(=O)N[C@@H]1C(=O)N2C(C(=O)[O-])=C(C[n+]3ccccc3)CS[C@H]12)c1csc(N)n1)C(=O)O [CEFTAZIDIME]
Escherichia coli [10]
  MIC: 0.25 µg/mL (≈ 0.457 µM)
Escherichia coli [11]
  MIC: > 64 µg/mL
Escherichia coli [1]
  MIC: 8 µg/mL (≈ 14.6 µM)
Escherichia coli [12]
  MIC: > 64 µg/mL
Escherichia coli [13]
  MIC: > 64 µg/mL
Escherichia coli [14]
  MIC: > 64 µg/mL
Escherichia coli [2]
  MIC: 8 µg/mL (≈ 14.6 µM)
Escherichia coli [15]
  MIC: > 64 µg/mL
Escherichia coli [16]
  MIC: 0.25 µg/mL (≈ 0.457 µM)
Escherichia coli [17]
  MIC: > 64 µg/mL
Escherichia coli [18]
  MIC: 0.125 µg/mL (≈ 0.229 µM)
Escherichia coli [3]
  MIC: > 64 µg/mL
Escherichia coli [19]
  MIC: 0.25 µg/mL (≈ 0.457 µM)
Escherichia coli [20]
  MIC: 64 µg/mL (≈ 117 µM)
Escherichia coli [21]
  MIC: > 64 µg/mL
Escherichia coli [22]
  MIC: > 64 µg/mL
Escherichia coli [5]
  MIC: > 64 µg/mL
Escherichia coli [6]
  MIC: > 64 µg/mL
Escherichia coli [23]
  MIC: > 64 µg/mL
Escherichia coli [24]
  MIC: 0.5 µg/mL (≈ 0.915 µM)
Escherichia coli [25]
  MIC: 8 µg/mL (≈ 14.6 µM)
Escherichia coli [26]
  MIC: 1 µg/mL (≈ 1.83 µM)
Escherichia coli [27]
  MIC: 2 µg/mL (≈ 3.66 µM)
Escherichia coli [7]
  MIC: 0.125 µg/mL (≈ 0.229 µM)
Escherichia coli [28]
  MIC: 0.5 µg/mL (≈ 0.915 µM)
Escherichia coli [29]
  MIC: 0.125 µg/mL (≈ 0.229 µM)
Escherichia coli [30]
  MIC: 64 µg/mL (≈ 117 µM)
Escherichia coli [31]
  MIC: 32 µg/mL (≈ 58.5 µM)
Escherichia coli [32]
  MIC: > 64 µg/mL
Escherichia coli [33]
  MIC: 8 µg/mL (≈ 14.6 µM)
Escherichia coli [34]
  MIC: 4 µg/mL (≈ 7.32 µM)
Escherichia coli [35]
  MIC: > 64 µg/mL
Escherichia coli [36]
  MIC: 0.25 µg/mL (≈ 0.457 µM)
Escherichia coli [37]
  MIC: 4 µg/mL (≈ 7.32 µM)
Escherichia coli [9]
  MIC: 64 µg/mL (≈ 117 µM)
Escherichia coli [38]
  MIC: > 64 µg/mL
Escherichia coli [39]
  MIC: 0.125 µg/mL (≈ 0.229 µM)
Escherichia coli [40]
  MIC: 16 µg/mL (≈ 29.3 µM)
Escherichia coli [41]
  MIC: 8 µg/mL (≈ 14.6 µM)
Escherichia coli [42]
  MIC: 64 µg/mL (≈ 117 µM)
Escherichia coli [43]
  MIC: > 64 µg/mL
Escherichia coli [8]
  MIC: 8 µg/mL (≈ 14.6 µM)
Escherichia coli [44]
  MIC: 0.125 µg/mL (≈ 0.229 µM)
Escherichia coli [45]
  MIC: 0.25 µg/mL (≈ 0.457 µM)
Escherichia coli [46]
  MIC: > 64 µg/mL
